Where “and” joins values, the source holds several entries; their conditions need not be identical. Equal entries are not always repeated.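 Growth conditions: 96-well plates. Treatment: test compound, 48 hours, 5 concentrations. Analysis: linear interpolation between bracketing concentrations; unreached endpoints set to highest concentration. GI50 is the concentration that inhibits growth by half. The concentration for full growth arrest is given as TGI.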
Key:
Experiment in all cases: NCI anticancer screen, dose series, 48 h
786-0 renal = tested on: 786-0 renal
A498 renal = tested on: A498 renal
A549 NSCLC = tested on: A549 NSCLC
ACHN renal = tested on: ACHN renal
BT-549 breast = tested on: BT-549 breast
CAKI-1 renal = tested on: CAKI-1 renal
CCRF-CEM leukemia = tested on: CCRF-CEM leukemia
COLO 205 colon = tested on: COLO 205 colon
DU-145 prostate = tested on: DU-145 prostate
EKVX NSCLC = tested on: EKVX NSCLC
HCC-2998 colon = tested on: HCC-2998 colon
HCT-116 colon = tested on: HCT-116 colon
HCT-15 colon = tested on: HCT-15 colon
HL-60(TB) leukemia = tested on: HL-60(TB) leukemia
HOP-62 NSCLC = tested on: HOP-62 NSCLC
HOP-92 NSCLC = tested on: HOP-92 NSCLC
HS 578T breast = tested on: HS 578T breast
HT29 colon = tested on: HT29 colon
IGROV1 ovarian = tested on: IGROV1 ovarian
K-562 leukemia = tested on: K-562 leukemia
KM12 colon = tested on: KM12 colon
LOX IMVI melanoma = tested on: LOX IMVI melanoma
M14 melanoma = tested on: M14 melanoma
MALME-3M melanoma = tested on: MALME-3M melanoma
MCF7 breast = tested on: MCF7 breast
MDA-MB-231 breast = tested on: MDA-MB-231 breast
MDA-MB-435 = tested on: MDA-MB-435
MOLT-4 leukemia = tested on: MOLT-4 leukemia
NCI-H226 lung = tested on: NCI-H226 lung
NCI-H23 lung = tested on: NCI-H23 lung
NCI-H460 lung = tested on: NCI-H460 lung
NCI-H522 lung = tested on: NCI-H522 lung
NCI/ADR-RES ovarian = tested on: NCI/ADR-RES ovarian
OVCAR-3 ovarian = tested on: OVCAR-3 ovarian
OVCAR-4 ovarian = tested on: OVCAR-4 ovarian
OVCAR-5 ovarian = tested on: OVCAR-5 ovarian
OVCAR-8 ovarian = tested on: OVCAR-8 ovarian
PC-3 prostate = tested on: PC-3 prostate
RPMI-8226 leukemia = tested on: RPMI-8226 leukemia
RXF 393 renal = tested on: RXF 393 renal
SF-268 CNS = tested on: SF-268 CNS
SF-295 CNS = tested on: SF-295 CNS
SF-539 CNS = tested on: SF-539 CNS
SK-MEL-2 melanoma = tested on: SK-MEL-2 melanoma
SK-MEL-28 melanoma = tested on: SK-MEL-28 melanoma
SK-MEL-5 melanoma = tested on: SK-MEL-5 melanoma
SK-OV-3 ovarian = tested on: SK-OV-3 ovarian
SN12C renal = tested on: SN12C renal
SNB-19 CNS = tested on: SNB-19 CNS
SNB-75 CNS = tested on: SNB-75 CNS
SR leukemia = tested on: SR leukemia
SW-620 colon = tested on: SW-620 colon
T-47D breast = tested on: T-47D breast
TK-10 renal = tested on: TK-10 renal
U251 CNS = tested on: U251 CNS
UACC-257 melanoma = tested on: UACC-257 melanoma
UACC-62 melanoma = tested on: UACC-62 melanoma
UO-31 renal = tested on: UO-31 renal

CCC[C@H](N[C@H]1CCc2cc(F)cc(F)c2C1)C(=O)Nc1cn(C(C)(C)CNCC(C)(C)C)cn1
GI50 (786-0 renal): 14.2 µM and 32.5 µM | TGI (786-0 renal): 49.8 µM and > 100 µM | GI50 (A498 renal): 3.85 µM and 19.2 µM | TGI (A498 renal): > 48.1 µM and 87.8 µM | GI50 (A549 NSCLC): 23.1 µM and 21.5 µM | TGI (A549 NSCLC): > 100 µM | GI50 (ACHN renal): 26.3 µM and 23.2 µM | TGI (ACHN renal): > 100 µM | GI50 (BT-549 breast): 14.9 µM and 21 µM | TGI (BT-549 breast): 72.2 µM and 86.2 µM | GI50 (CAKI-1 renal): 7.69 µM and 4.75 µM | TGI (CAKI-1 renal): > 47.6 µM and 42.9 µM | GI50 (CCRF-CEM leukemia): 24.5 µM and 20.7 µM | TGI (CCRF-CEM leukemia): > 100 µM | GI50 (COLO 205 colon): 14 µM and 14.4 µM | TGI (COLO 205 colon): 28.6 µM and 29.1 µM | GI50 (DU-145 prostate): 34.8 µM and 35.9 µM | TGI (DU-145 prostate): > 100 µM | GI50 (EKVX NSCLC): 24.2 µM and 21.3 µM | TGI (EKVX NSCLC): > 100 µM | GI50 (HCC-2998 colon): 22.3 µM and 24.9 µM | TGI (HCC-2998 colon): > 100 µM | GI50 (HCT-116 colon): 7.27 µM and 10.9 µM | TGI (HCT-116 colon): 23.3 µM and 28.6 µM | GI50 (HCT-15 colon): 20.1 µM and 16.3 µM | TGI (HCT-15 colon): > 100 µM | GI50 (HL-60(TB) leukemia): 13.9 µM and 22.4 µM | TGI (HL-60(TB) leukemia): 43.3 µM and > 100 µM | GI50 (HOP-62 NSCLC): 33.3 µM and 53.3 µM | TGI (HOP-62 NSCLC): > 100 µM | GI50 (HOP-92 NSCLC): 5.6 µM and 2.52 µM | TGI (HOP-92 NSCLC): 40.1 µM and 27.2 µM | GI50 (HS 578T breast): 16.3 µM and 13.1 µM | TGI (HS 578T breast): > 100 µM and 93.5 µM | GI50 (HT29 colon): 10.4 µM and 11.9 µM | TGI (HT29 colon): 29.5 µM and 28.8 µM | GI50 (IGROV1 ovarian): 42.6 µM and 31.5 µM | TGI (IGROV1 ovarian): > 100 µM | GI50 (K-562 leukemia): 5.6 µM and 12.1 µM | TGI (K-562 leukemia): > 100 µM | GI50 (KM12 colon): 26.9 µM and 27 µM | TGI (KM12 colon): > 100 µM | GI50 (LOX IMVI melanoma): 15.5 µM and 16.1 µM | TGI (LOX IMVI melanoma): 34.3 µM and 35.9 µM | GI50 (M14 melanoma): 13.8 µM and 14.8 µM | TGI (M14 melanoma): 41.2 µM and 46.6 µM | GI50 (MALME-3M melanoma): 11 µM and 12.9 µM | TGI (MALME-3M melanoma): 28.5 µM and 29.5 µM | GI50 (MCF7 breast): 16.3 µM and 11.7 µM | TGI (MCF7 breast): > 64.4 µM and 83.7 µM | GI50 (MDA-MB-231 breast): 15.3 µM and 12.9 µM | TGI (MDA-MB-231 breast): 45.3 µM and 41.2 µM | GI50 (MDA-MB-435): 21.3 µM and 21.5 µM | TGI (MDA-MB-435): > 100 µM | GI50 (MOLT-4 leukemia): 6.93 µM and 7.84 µM | TGI (MOLT-4 leukemia): > 100 µM | GI50 (NCI-H226 lung): 26.5 µM and 14.1 µM | TGI (NCI-H226 lung): > 100 µM and 92.9 µM | GI50 (NCI-H23 lung): 24.1 µM and 22.4 µM | TGI (NCI-H23 lung): > 100 µM | GI50 (NCI-H460 lung): 25.3 µM and 21.6 µM | TGI (NCI-H460 lung): > 100 µM | GI50 (NCI-H522 lung): 23.9 µM and 13.4 µM | TGI (NCI-H522 lung): > 100 µM and 69.6 µM | GI50 (NCI/ADR-RES ovarian): 17.2 µM and 20.6 µM | TGI (NCI/ADR-RES ovarian): > 100 µM | GI50 (OVCAR-3 ovarian): 19.9 µM and 16.6 µM | TGI (OVCAR-3 ovarian): > 100 µM and 77.6 µM | GI50 (OVCAR-4 ovarian): 23.6 µM and 16.1 µM | TGI (OVCAR-4 ovarian): > 100 µM | GI50 (OVCAR-5 ovarian): 27 µM and 22.6 µM | TGI (OVCAR-5 ovarian): > 100 µM | GI50 (OVCAR-8 ovarian): 31.7 µM and 26 µM | TGI (OVCAR-8 ovarian): > 100 µM | GI50 (PC-3 prostate): 10.9 µM and 12.4 µM | TGI (PC-3 prostate): > 100 µM | GI50 (RPMI-8226 leukemia): 9.57 µM and 11 µM | TGI (RPMI-8226 leukemia): 48.8 µM and 69 µM | TGI (RXF 393 renal): 39.9 µM and 13.4 µM | GI50 (SF-268 CNS): 21.8 µM and 16.5 µM | TGI (SF-268 CNS): > 100 µM | GI50 (SF-295 CNS): 23.6 µM and 18.5 µM | TGI (SF-295 CNS): > 100 µM | GI50 (SF-539 CNS): 19 µM and 27.8 µM | TGI (SF-539 CNS): 47.3 µM and > 100 µM | GI50 (SK-MEL-2 melanoma): 16.8 µM and 15.1 µM | TGI (SK-MEL-2 melanoma): 42 µM and 37.2 µM | GI50 (SK-MEL-28 melanoma): 19 µM and 18 µM | TGI (SK-MEL-28 melanoma): 52.9 µM and 54.8 µM | GI50 (SK-MEL-5 melanoma): 15.2 µM and 13 µM | TGI (SK-MEL-5 melanoma): 29.6 µM and 26.2 µM | GI50 (SK-OV-3 ovarian): 37.2 µM and 40.3 µM | TGI (SK-OV-3 ovarian): > 100 µM | GI50 (SN12C renal): 28.6 µM and 17.5 µM | TGI (SN12C renal): > 100 µM | GI50 (SNB-19 CNS): 35.2 µM and 29.7 µM | TGI (SNB-19 CNS): > 100 µM | GI50 (SNB-75 CNS): 18.2 µM and 13.8 µM | TGI (SNB-75 CNS): > 100 µM | GI50 (SR leukemia): 19.3 µM and 14 µM | TGI (SR leukemia): > 100 µM and 91.1 µM | GI50 (SW-620 colon): 23.7 µM and 23.3 µM | TGI (SW-620 colon): > 100 µM | GI50 (T-47D breast): 9.83 µM and 14.2 µM | TGI (T-47D breast): > 100 µM | GI50 (TK-10 renal): 25.1 µM and 28.9 µM | TGI (TK-10 renal): > 100 µM | GI50 (U251 CNS): 17.6 µM and 19.3 µM | TGI (U251 CNS): > 100 µM | GI50 (UACC-257 melanoma): 13.7 µM and 12.9 µM | TGI (UACC-257 melanoma): 61.9 µM and 40.4 µM | GI50 (UACC-62 melanoma): 16.8 µM | TGI (UACC-62 melanoma): 45.8 µM | GI50 (UO-31 renal): 5.72 µM and 4.1 µM | TGI (UO-31 renal): 30 µM and 27.7 µM

Reference: PubChem BioAssay (NCI)
